Source: patent publication US11331375B2, “Compositions and methods for regulating leukocyte adhesion” (University of Virginia Patent Foundation, priority 2015, dated 2022)

Tests used:
[1] = tested on: THP-1 monocyte adhesion to HUVEC; assay: Static adhesion assay, THP-1 monocytes on HUVEC; assay type: cell-based, human; details: HUVEC treated with inhibitor prior to TNFα stimulation
Experimental: HUVECs were seeded on gelatin-coated glass coverslips in 6-well plates and grown to confluence. On the day of the experiment, cells were washed 2× with 1× PBS and incubated for 30 minutes in basal EGM supplemented with 1% BSA in the presence or absence of pharmacological inhibitors. During this incubation period, human THP-1 monocytes were loaded with Calcein-AM (Invitrogen; 5 μg/mL) for 30 minutes at 37° C. Cells were then pelleted by brief centrifugation and excess calcein was removed by washing THP-1 cells 3 times in 1× PBS. Next, HUVECs were stimulated with TNFα (10 ng/mL) for 30 minutes. Following EC activation, calcein-loaded THP-1 monocytes were added to EC monolayers and incubated for 20 minutes at 37° C. to allow THP-1 to contact ECs. Monolayers were then washed 3× with 1× PBS and fixed in ice cold 4% PFA. Following fixation, coverslips were removed from the 6-well plates and mounted on glass microscope slides with Prolong Gold anti-fade mountant with DAPI (Life Technologies). Fluorescent micrographs were obtained at 10×magnification and the number of adherent THP-1 monocytes/ECs was quantified in 5 randomized regions/slide. Data are expressed as mean±SEM (n=3 independent experiments).

HUVEC = assay: In vitro ATP release assay (luciferin:luciferase), HUVEC; assay type: cell-based, human; details: for reduction of TNFα-mediated ATP release: CBX 50 μM, ^10panx1 200 μM; for effect of inhibitor on TNFα-induced ATP release: antagonist 30 min, WP9QY 10 μM, La3+ 100 μM, BFA 5 μg/mL, RuR 20 μM, PP2/PP3 10 μM, Q-VD-OPh 100 μM
Experimental: (§1) In vitro Human arterial and venous ECs were seeded in 24-well plates pre-coated with 0.2% gelatin and grown to confluency. On the day of experiment, the media was removed from each well and cells were carefully washed twice with warm serum free basal EC medium supplemented with 1% BSA. Cells were then incubated in 300 μL of fresh basal EC medium supplemented with 1% BSA for 30 minutes at 37° C. to allow degradation of extracellular ATP released due to mechanical stimulation during washes. Endogenous ecto-nucleotidases were inhibited by incubating EC monolayers with 300 μM ARL 67156 (Tocris) for 30 minutes at 37° C. Cells were then stimulated with recombinant human TNFα (R&D Systems). For dose response experiments, ECs were incubated with 0.1, 1, 5, 10, 50, or 100 ng/mL recombinant TNFα for 30 minutes at 37° C. For time-course experiments, ECs were stimulated with 10 ng/mL recombinant TNFα for different time points up to 1 hour. In experiments where pharmacological inhibitors were employed, ECs were incubated with antagonists in parallel with ARL 67156 for 30 minutes. To inhibit TNFR1, ECs were incubated with the peptide antagonist of the receptor WP9QY (10 μM; Anaspec). […] Cx hemichannels were inhibited with lanthanum (La^3+; 100 μM; Sigma) and Panx1 channels were blocked with carbenoxolone (CBX; 50 μM; Sigma) and the inhibitory peptide ^10panx1 (200 μM; Genscript). […] The role of caspase activation was assessed by inhibition with the pan-caspase blocker Q-VD-OPh (100 μM; Sigma). Following stimulation with TNFα or vehicle, 150 μL of the cell supernatant was collected and immediately placed into pre-chilled 1.5 mL Eppendorf tubes on ice. All samples were centrifuged at 10,000×g for 5 minutes and 50 μL of each sample was transferred to a white, opaque 96-well plate. Using a FluoStar Omega luminometer, 50 μL of luciferin:luciferase reagent (ATP bioluminescence assay kit HSII; Roche) was injected into each well and luminescence was recorded following a 5s orbital mix. ATP concentration in each sample was calculated from a standard curve for all experiments. Data are presented as a % change in ATP release from baseline (i.e. unstimulated cells) and expressed as mean±SEM (n=5 independent experiments with triplicate measurements).

HSaVEC = assay: In vitro ATP release assay (luciferin:luciferase), HSaVEC; assay type: cell-based, human; details: for inhibition of TNFα-mediated ATP release: CBX, ^10panx1; for effect of inhibitor on TNFα-induced ATP release: antagonist 30 min, WP9QY 10 μM, BFA 5 μg/mL, RuR 20 μM, PP2/PP3 10 μM
Experimental: as §1

Src Family Kinases (SFK) = assay: Western blot of SFK activation (pY416SFK) in venous ECs; assay type: cell-based, human; details: HUVEC and HSaVEC; PP2/PP3 10 μM
Experimental: (§2) Following stimulation with TNFα (in vitro: 10 ng/mL; ex vivo: 50 ng/mL), confluent endothelial cell monolayers or isolated mesenteric venules were homogenized in ice cold Triton extraction buffer (50 mM Tris-HCL, 150 mM NaCl , 5 mM EDTA, 1% deoxycholate, 1% NP-40 and 1% Triton-X100 in phosphate buffered saline and pH adjusted to 7.4) containing protease and phosphatase inhibitors. Cell/Tissue lysates were incubated with rotation at 4° C. for 20 minutes to solubilize proteins, followed by centrifugation for 5 minutes at 13,000× g to pellet cell debris. Protein concentration was quantified using the BCA method. 15-20 μg of total protein was subjected to SDS gel electrophoresis using 4-12% Bis-Tris gels (Invitrogen) and transferred to nitrocellulose membranes for immunoblotting. Membranes were blocked for 1 hr at room temperature with LiCOR blocking solution, then incubated overnight at 4° C. with primary antibodies against pY416SFKs, (BD Biosciences; 1:1000) pY198Panx1 (Alpha Diagnostic Intl (ADI); 1:1000) and GAPDH (Sigma; 1:10,000) or an antibody against the intracellular loop of Panx1 (Panx1-IL) (ADI; 1:1000) (normalization controls). Membranes were then washed and incubated with LiCOR secondary antibodies (1:10,000) and visualized and quantitated using LiCOR Odyssey. To inhibit SFK activity, EC monolayers were incubated with the SFK inhibitor PP2 (Tocris; 10 μM). […] To show specificity for the phosphorylated form of SFKs and Panx1, cell lysates were incubated with alkaline phosphatase for 1 hour at 37° C. Western blot images have been cropped for presentation. Uncropped Western blots can be found in FIGS. 12-13. Data are expressed as mean±SEM (n=3 independent experiments).

Panx1 = assay: Western blot of Panx1 phosphorylation at Y198 in venous ECs; assay type: cell-based, human
Experimental: as §2

[2] = tested on: isolated murine mesenteric venules; assay: Ex vivo vascular perfusion ATP release assay, mesenteric venules; assay type: cell-based, mouse; details: WP9QY 10 μM, PP2 10 μM
Experimental: For isolated blood vessel experiments, 2nd order venules or arterioles were dissected from the mouse mesentery circulation and cannulated on glass micropipettes to access the vessel lumen. […] Vessels were then perfused with MOPS PSS containing 300 μM ARL 67156 +/− pharmacological inhibitors and incubated for an additional 20 minutes prior to perfusion with MOPS PSS containing recombinant murine TNFα (R&D Systems). Aliquots of the lumenal perfusate were collected every 5 minutes for a 25-minute period and the ATP concentration was quantified by bioluminescence as described above. Data are expressed as mean±SEM (n=4 independent experiments).

C57B1/6J mice = assay: Intravital microscopy of cremaster muscle for leukocyte adhesion and emigration; assay type: in vivo, mouse; details: control C57B1/6J mice, tamoxifen 10 consecutive days
Experimental: Mice were prepared for intravital microscopy of the cremaster muscle as described previously^25. Briefly, mice were anesthetized with ketamine hydrochloride (150 mg/kg, IP) and xylazine (7.5 mg/kg, IP). The cremaster was isolated, laid over a viewing pedestal, superfused with bicarbonate-buffered saline. After 30 min equilibration, a venule with a wall shear rate (WSR) of ≥500/s, diameter between 20 μm and 40 μm, and the least number of adherent and emigrated leukocytes was chosen for further study. A 1 min baseline recording was made, after which superfusion was stopped, and 50 μl TNFα (1.7 ng/ml in 0.1% BSA) or vehicle control was added under a saran wrap cover every 30 min. 1 min recordings were made just prior to each addition, for 3 hrs. The TNFα was initially reconstituted in PBS at 3.4 ng/ml and 150 μl aliquots were frozen. An aliquot was mixed 1:1 with BBS containing 0.2% BSA at the time of the experiment. Leukocyte adhesion and emigration were determined by off-line analysis. Leukocytes were considered adherent if they stopped for at least 30 s (expressed as #/mm^2 vessel wall), and emigrated leukocytes were leukocytes identified in the interstitium (expressed as #cells/mm^2 tissue). Data are expressed as mean±SEM (n=6-7 independent animals/group).

pannexin1 channel = pannexin1 channel (Homo sapiens, UniProt Q96RD7); details: cited from earlier work
pannexin1 channel, sequence (Q96RD7 whole entry): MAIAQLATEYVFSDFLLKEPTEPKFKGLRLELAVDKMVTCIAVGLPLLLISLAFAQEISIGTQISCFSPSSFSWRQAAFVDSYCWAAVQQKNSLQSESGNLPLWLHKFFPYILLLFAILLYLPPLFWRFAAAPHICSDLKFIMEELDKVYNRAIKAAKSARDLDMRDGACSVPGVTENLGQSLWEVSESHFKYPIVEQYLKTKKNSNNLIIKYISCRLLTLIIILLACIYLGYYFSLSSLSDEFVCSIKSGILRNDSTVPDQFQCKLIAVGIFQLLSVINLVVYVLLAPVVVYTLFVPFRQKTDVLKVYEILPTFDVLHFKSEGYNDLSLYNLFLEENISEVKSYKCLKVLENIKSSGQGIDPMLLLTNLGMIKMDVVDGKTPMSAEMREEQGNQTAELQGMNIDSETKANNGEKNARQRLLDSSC

Panx1 channels in HUVEC = target: T1, Panx1 channels in HUVEC (Homo sapiens, UniProt Q96RD7); assay: YO-PRO-1 dye uptake assay; assay type: cell-based; details: ^10panx1 200 μM, TNFα 10 ng/mL 30 minutes
T1 construct: Primary human umbilical vein endothelial cells (HUVEC) were purchased from Cell Applications; PromoCell 200K-05; C-12231; host or cells: HUVEC, HSaVEC (primary human venous endothelial cells)
T1 sequence (Q96RD7 whole entry): as above
Experimental: HUVECs were cultured on poly-L-lysine coated coverslips and grown to confluence in EGM. Cells were washed three times with 1× PBS and incubated in fresh EGM for 30 minutes prior to stimulation. To stimulate YO-PRO-1 dye uptake, YO-PRO-1 (1 μM) was added to the media and EC monolayers were treated with TNFα at a range of concentrations (0.1 ng/mL-100 ng/mL) for 30 minutes. At the end of the stimulation, cells were washed 3× with 1× PBS and immediately fixed in 4% PFA. Coverslips were then mounted on microscope slides with DAPI ProlongGold mounting agent and visualized on an Olympus IX81 laser scanning confocal microscope. Dye uptake was quantified as the intensity of YO-PRO-1 fluorescence over time using ImageJ software. For time course analysis, YO-PRO-1 was added to the culture media at various time points after TNFα stimulation and incubated to the 30-minute time point. Data are expressed as mean±SEM (n=3 independent experiments).

Compound: CC1(C)[C@@H](OC(=O)CCC(=O)O)CC[C@]2(C)[C@H]3C(=O)C=C4[C@@H]5C[C@@](C)(C(=O)O)CC[C@]5(C)CC[C@@]4(C)[C@]3(C)CC[C@@H]12 [CBX, carbenoxolone]
- effect on TNFα-induced THP-1 monocyte adhesion [1]: significantly reduced
- reduction of TNFα-mediated ATP release (HUVEC; HUVEC): 86.4%
- inhibition of TNFα-mediated ATP release (HSaVEC; HSaVEC): 69.7%

Compound: CC(C)(C)n1nc(-c2ccc(Cl)cc2)c2c(N)ncnc21 [PP2]
- effect on TNFα-induced Y416 phosphorylation of SFK (Src Family Kinases (SFK)): reduced Y416 phosphorylation to baseline levels
- effect on Panx1 Y198 phosphorylation induced by c-Src overexpression (Panx1; HUVEC): blocked
- effect on TNFα-induced Panx1 phosphorylation at Y198 (Panx1; HUVEC and HSaVECs, pretreatment with PP2): blocked
- effect of inhibitor on TNFα-induced ATP release (HUVEC; HUVEC): significantly blunted
- effect of inhibitor on TNFα-induced ATP release [2]: blunting ATP release
- effect of inhibitor on TNFα-induced ATP release (HSaVEC; HSaVEC): significantly blunted

Compound: Nc1ncnc2c1cnn2-c1ccccc1 [PP3]
- effect on TNFα-induced Y416 phosphorylation of SFK (Src Family Kinases (SFK)): no effect
- effect of inhibitor on TNFα-induced ATP release (HUVEC; HUVEC): no significant effect
- effect of inhibitor on TNFα-induced ATP release (HSaVEC; HSaVEC): no significant effect

Compound: CC(C)[C@H](NC(=O)c1ccc2ccccc2n1)C(=O)N[C@@H](CC(=O)O)C(=O)COc1c(F)cccc1F [Q-VD-OPh]
- effect of inhibitor on TNFα-induced ATP release (HUVEC; HUVEC): lack of inhibition

Compound: [La] [lanthanum]
- effect of inhibitor on TNFα-induced ATP release (HUVEC; HUVEC): failed to reduce ATP release

Compound: N.N.N.N.N.N.N.N.N.N.N.N.N.N.[Cl-].[Cl-].[Cl-].[Cl-].[Cl-].[Cl-].[O-2].[O-2].[Ru+3].[Ru+3].[Ru+4] [ruthenium red]
- effect of inhibitor on TNFα-induced ATP release (HUVEC; HUVEC): ruled out the involvement
- effect of inhibitor on TNFα-induced ATP release (HSaVEC; HSaVEC): ruled out the involvement

Compound: CC/C(=C(\c1ccccc1)c1ccc(OCCN(C)C)cc1)c1ccccc1 [tamoxifen]
- effect on TNFα-induced leukocyte adhesion (C57B1/6J mice): no effect
- effect on TNFα-induced leukocyte emigration (C57B1/6J mice): no effect

Compound: Apyrase
- effect on TNFα-induced THP-1 monocyte adhesion [1]: significantly reduced

Compound: IL-1β: recombinant human pro-inflammatory cytokine
- ATP release on cytokine stimulation (HUVEC; HUVEC monolayers): failed to promote ATP release
- degree of ATP release on co-administration with TNFα vs TNFα alone (HUVEC; HUVEC, TNFα 10 ng/mL plus increasing IL-1β): did not significantly alter
- ATP release on cytokine stimulation (HSaVEC; HSaVEC monolayers): failed to promote ATP release
- degree of ATP release on co-administration with TNFα vs TNFα alone (HSaVEC; HSaVEC, TNFα 10 ng/mL plus increasing IL-1β): did not significantly alter

Compound: KYPIVEQYLKYGRKKQRRR (hybrid of human and HIV tat seq.) [IL2/PanX peptide]
- inhibition of pannexin1 channel (previously shown / known) (pannexin1 channel): potent and specific inhibitor
- effect on TNFα-induced THP-1 monocyte adhesion [1]: ability to block leukocyte adhesion

Compound: WRQAAFVDSY [^10panx1]
- inhibition of pannexin1 channel (previously shown / known) (pannexin1 channel): block pannexin-1 gap junctions
- effect on TNFα-induced THP-1 monocyte adhesion [1]: significantly reduced
- reduction of TNFα-mediated ATP release (HUVEC; HUVEC): 70.9%
- inhibition of TNFα-mediated ATP release (HSaVEC; HSaVEC): 75.2%
- effect on TNFα-induced YO-PRO-1 dye uptake (Panx1 channels in HUVEC): significantly attenuated
